Tested on: IAV PA 1–192 aa endonuclease
Type: binding

O=C1c2c(O)c(=O)ccn2N([C@@H]2c3ccccc3SCc3c2ccc(F)c3F)[C@@H]2COCCN12 [BXA, Baloxavir acid]
increase in thermostability of IAV endonuclease: 28.1 °C
